Tests used:
HepG2 cells = assay type: cell-based, human
Method: (§1) The effect of the sub-micromolar HDM2 binding bis-peptide 1 in cell-culture was thereafter evaluated. The cell-penetrating capability of two of the functionalized bis-peptides was first examined. […] Bis-peptide 1 was then incubated with both Huh7 cells and HepG2 (human liver hepatoblastoma cells) and imaged.

Huh7 cells = assay: cell penetration by fluorescence microscopy, Huh7; assay type: cell-based, human
Method: as §1

p53 = details: stated as known behaviour of HDM2 ligands; cited from earlier work

| SMILES | cellular uptake and distribution (HepG2 cells) | cellular uptake and distribution (Huh7 cells) | cellular uptake (Huh7 cells; Huh7, 2 μM, 24 hours, fluorescence and confocal microscopy) | effect on p53 levels (p53) |
| --- | --- | --- | --- | --- |
| CC(C)CN1C(=O)[C@@H]2C[C@@]3(CN2C(=O)[C@@]12C[C@H]1C(=O)N(Cc4ccc(Cl)c(Cl)c4)[C@]4(C[C@@H]5C(=O)N[C@@H](CCc6ccccc6)C(=O)N5C4)C(=O)N1C2)NC(=O)[C@@H](CCCCNC(=S)Nc1ccc2c(c1)C(=O)OC21c2ccc(O)cc2Oc2cc(O)ccc21)NC3=O [Entry 1] | distribution of entry 1 throughout the cytoplasm and nucleus | distribution of entry 1 throughout the cytoplasm and nucleus |  |  |
| CC(C)CN1C(=O)[C@@H]2C[C@@]3(CN2C(=O)[C@@]12C[C@H]1C(=O)N(Cc4ccc5ccccc5c4)[C@]4(C[C@H]5C(=O)N[C@@H](Cc6ccccc6)C(=O)N5C4)C(=O)N1C2)NC(=O)[C@H](CCCCNC(=S)Nc1ccc2c(c1)C(=O)OC21c2ccc(O)cc2Oc2cc(O)ccc21)NC3=O [Entry 3] |  |  | Significant uptake |  |
| O=C1OC2(c3ccc(O)cc3Oc3cc(O)ccc32)c2ccccc21 [fluorescein, reference compound] | no visible uptake of fluorescence | no visible uptake of fluorescence |  |  |
| COc1ccc(C2=N[C@@H](c3ccc(Cl)cc3)[C@@H](c3ccc(Cl)cc3)N2C(=O)N2CCNC(=O)C2)c(OC(C)C)c1 [nutlin-3a] |  |  |  | increase in p53 levels |

Source: patent US8895739B2, “Acylation of hindered amines and functionalized bis-peptides obtained thereby” (Temple University of the Commonwealth System of Higher …, priority 2008, dated 2014)
